The values below come from PubChem BioAssay (NCI).

Structures are written as SMILES. “And” between values parts separate entries of the source, which are not always exact repeats. Identical values can stand only once.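 Five concentrations, 48 hours, 96-well plates. GI50 is the concentration that inhibits growth by half. At the TGI there is no net growth.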

Among the test systems are LOX IMVI melanoma; DU-145 prostate; SF-539 CNS; NCI/ADR-RES ovarian; COLO 205 colon; NCI-H460 lung; NCI-H23 lung; SR leukemia.
Common to all, as to assay: NCI-60 cell line screen, 48 h

As for `OC(Cc1ccncc1)C(Cl)(Cl)Cl` (stereo unspecified), the GI50 in the experiment with LOX IMVI melanoma, with DU-145 prostate, in the experiment with SF-539 CNS, in the experiment with NCI/ADR-RES ovarian, in the experiment on COLO 205 colon and in the experiment on NCI-H460 lung was over 100 µM throughout. In the experiment on NCI-H23 lung, the GI50 is 76.3 µM. Also, the TGI with LOX IMVI melanoma, with DU-145 prostate, in the experiment with SF-539 CNS, in the experiment with NCI/ADR-RES ovarian, in the experiment with COLO 205 colon and in the experiment with NCI-H460 lung was over 100 µM each time. In the experiment on NCI-H23 lung, this compound displayed a TGI of over 100 µM.
With `CCOC(=O)c1c(C)nc2c(c1N)CC(=O)N2Cc1ccc(OC)cc1`, the GI50 with LOX IMVI melanoma is over 100 µM; in the experiment with DU-145 prostate it was over 100 µM; in the experiment on SF-539 CNS, 7.03 µM; with NCI/ADR-RES ovarian, 4.96 µM; in the experiment with COLO 205 colon, over 100 µM; in the experiment on SR leukemia it was 63.1 µM. Also, the GI50 with NCI-H23 lung was 4.26 µM. In addition, the TGI in the experiment on LOX IMVI melanoma, in the experiment on DU-145 prostate, with SF-539 CNS, in the experiment on NCI/ADR-RES ovarian, with COLO 205 colon and in the experiment on SR leukemia was over 100 µM each time. In the experiment on NCI-H23 lung, this compound came in with a TGI of over 100 µM.
On to `COc1ccc(-c2cc3c(c4cc(OC)ccc24)C(=O)OC3=O)cc1`, for which the TGI in the experiment on LOX IMVI melanoma, in the experiment with DU-145 prostate, with NCI/ADR-RES ovarian, in the experiment with COLO 205 colon, with NCI-H460 lung and in the experiment on SR leukemia was over 100 µM each time. The TGI in the experiment on NCI-H23 lung was over 100 µM.
In the case of `CC1(C)C2CCC13C(=O)C1OC3(C2)C2C(=O)c3cc4ccccc4cc3C(=O)C12` (stereo unspecified), the GI50 in the experiment with SF-539 CNS is 40.1 µM; in the experiment with NCI/ADR-RES ovarian, 2.71 µM; in the experiment on COLO 205 colon, 14.7 µM; in the experiment with NCI-H460 lung, 5.48 µM; in the experiment with SR leukemia, 1.83 µM; with NCI-H23 lung, 4.75 µM. In addition, the TGI in the experiment on SF-539 CNS is 72 µM; in the experiment with NCI/ADR-RES ovarian, 15.9 µM; with COLO 205 colon it was over 100 µM; with NCI-H460 lung it was over 100 µM; in the experiment with SR leukemia, 7.04 µM; in the experiment with NCI-H23 lung, 32.6 µM.
With `O=C(c1ccccc1)c1ccccc1-c1ccccc1`, the GI50 in the experiment on LOX IMVI melanoma was 5.96 µM; in the experiment with DU-145 prostate, 3.36 µM; in the experiment with SF-539 CNS, 3.06 µM; in the experiment with NCI/ADR-RES ovarian, 1 µM; in the experiment on COLO 205 colon, 2.87 µM; with NCI-H460 lung it was 3.35 µM. Moreover, the GI50 in the experiment with NCI-H23 lung is 4.46 µM. In addition, the TGI is over 100 µM in the experiment with LOX IMVI melanoma; 38.2 µM in the experiment with DU-145 prostate; 15.3 µM with SF-539 CNS; 8.02 µM in the experiment on NCI/ADR-RES ovarian; 8.37 µM in the experiment on COLO 205 colon; 18.2 µM in the experiment with NCI-H460 lung. The TGI in the experiment on NCI-H23 lung is over 100 µM.
In the case of `CC[C@@H]1c2c(C#N)ncn2-c2cnc(Nc3ccc(C(=O)NC4CCN(C5CCN(CC6CC6)CC5)CC4)cc3OC)nc2N1C1CCCC1`, the GI50 in the experiment on LOX IMVI melanoma is 0.0368 µM; in the experiment on DU-145 prostate it was 0.0235 µM and 0.0353 µM; in the experiment on SF-539 CNS it was 0.0493 µM; with NCI/ADR-RES ovarian, 1.29 µM; in the experiment on NCI-H460 lung, 0.0354 µM; in the experiment with SR leukemia, 0.0387 µM. In the experiment on NCI-H23 lung, the GI50 was 0.0374 µM. In addition, the TGI in the experiment with LOX IMVI melanoma is 1.06 µM; with DU-145 prostate, 0.072 µM and 0.246 µM; in the experiment with SF-539 CNS it was 0.888 µM; in the experiment on NCI/ADR-RES ovarian, 2.8 µM; with NCI-H460 lung, 1.28 µM; in the experiment on SR leukemia, 1.02 µM. This compound displayed a TGI in the experiment on NCI-H23 lung of 1.38 µM.
Take `CCOc1cccc(/C=N/N=C2\C(=O)Nc3c(Cl)cc(Cl)cc32)c1O`: the TGI in the experiment with LOX IMVI melanoma, in the experiment with SF-539 CNS, in the experiment on NCI/ADR-RES ovarian, in the experiment with COLO 205 colon, with NCI-H460 lung and in the experiment on SR leukemia was over 100 µM throughout. The compound also showed a TGI in the experiment on NCI-H23 lung of over 100 µM.
With `CN1CCC2(CC1)ONC1=NCCN12`, the GI50 with DU-145 prostate was 51.3 µM; in the experiment with SF-539 CNS, 47.5 µM; in the experiment on NCI/ADR-RES ovarian it was 19.6 µM; with COLO 205 colon, 31.1 µM; with NCI-H460 lung, 37.2 µM; in the experiment on NCI-H23 lung, 34.5 µM. The TGI in the experiment on DU-145 prostate was over 100 µM; in the experiment on SF-539 CNS, over 100 µM; with NCI/ADR-RES ovarian it was 70.3 µM; in the experiment with COLO 205 colon it was over 100 µM; in the experiment on NCI-H460 lung, over 100 µM; with NCI-H23 lung, over 100 µM.
Turning to `Cc1cccc(/C=C/c2c(C(=O)/C=C/c3ccccc3)c(C)nc3ccccc23)c1`, the GI50 in the experiment on LOX IMVI melanoma is 1.58 µM; in the experiment on SF-539 CNS, 1.71 µM; in the experiment with NCI/ADR-RES ovarian, 1.85 µM; in the experiment on COLO 205 colon it was 1.81 µM; with NCI-H460 lung it was 1.3 µM; in the experiment on SR leukemia it was 0.982 µM. In addition, in the experiment on NCI-H23 lung, the GI50 was 1.58 µM. The TGI with LOX IMVI melanoma amounted to 2.93 µM; with SF-539 CNS it was 3.12 µM; with NCI/ADR-RES ovarian it was 4.65 µM; in the experiment with COLO 205 colon it was 4.34 µM; in the experiment with NCI-H460 lung, 2.94 µM; in the experiment on SR leukemia, 4.94 µM. This compound also had a TGI in the experiment on NCI-H23 lung of 3.57 µM.
As to `COC(=O)c1ccc(-c2nc3cc(Cl)c(Cl)cc3nc2C#N)cc1`, the GI50 with LOX IMVI melanoma, in the experiment on DU-145 prostate, with SF-539 CNS, in the experiment on NCI/ADR-RES ovarian, in the experiment on COLO 205 colon and with NCI-H460 lung was over 100 µM in each case. Moreover, the GI50 with NCI-H23 lung was over 100 µM. Besides, the TGI in the experiment with LOX IMVI melanoma, in the experiment with DU-145 prostate, in the experiment with SF-539 CNS, with NCI/ADR-RES ovarian, with COLO 205 colon and in the experiment on NCI-H460 lung was over 100 µM throughout. Further, the TGI in the experiment on NCI-H23 lung is over 100 µM.
In the case of `N#Cc1ccc(OCc2nc(N)nc(N)c2-c2ccc(Cl)c(Cl)c2)cc1`, the GI50 was 0.424 µM in the experiment with LOX IMVI melanoma; 3.6 µM in the experiment with DU-145 prostate; 0.802 µM in the experiment with SF-539 CNS; 1.55 µM in the experiment with NCI/ADR-RES ovarian; 4.02 µM with COLO 205 colon; 0.377 µM with NCI-H460 lung. Besides, the GI50 in the experiment on SR leukemia was 4.03 µM. Besides, the TGI was over 100 µM in the experiment with LOX IMVI melanoma; over 100 µM with DU-145 prostate; 37.5 µM in the experiment with SF-539 CNS; over 100 µM with NCI/ADR-RES ovarian; over 100 µM in the experiment on COLO 205 colon; 14.1 µM in the experiment on NCI-H460 lung. Also, the TGI in the experiment with SR leukemia amounted to 66.2 µM.
